In patent publication US9763884B2, “Drug delivery system” (EB IP HYBRITABS B.V., priority 2011, dated 2017):

Assays:
[1] = general statement in the discussion, no source given; cited from earlier work
[2] = Clinical cross-over pharmacokinetic study of F1 versus F2 (testosterone and sildenafil citrate) in healthy pre-menopausal women; settings: female, human, plasma, other: sublingual, 0.5 mg
Method: Sildenafil (S) and N-desmethyl-sildenafil (NDS) concentrations were determined by HPLC-MS/MS as follows.
The human plasma samples were vortex mixed and 0.5 mL of the sample was transferred into a clean test tube to which 20 μL of an Internal Standard solution (10 ng/mL) in methanol was added and vortex mixed. Then, 4 mL Methyl-Tertiary-Butyl-Ether (MTBE) was added, tubes were capped and shaken for 10 minutes and then centrifuged for 5 minutes at 2000 rcf. The tubes were placed into a snap freezer and the bottom water layer was frozen. The supernatant was transferred into a clean tube and evaporated to dryness under a stream of nitrogen. […]
Cmax and Tmax were read from the observed values. The half life was calculated from the unweighted linear regression of the log transformed data determined at the elimination phase of the pharmacokinetic profile. The Area Under Curve (O-last) was determined as the area under the concentration versus time curve from the first time point to last time point with measurable drug concentration with a linear/log-linear trapezoidal model. The AUC (0-∞) was determined by extrapolation from the time point where the last measurable drug concentration (Cp) occurred to time infinity. […] Tlag was determined as the first time point with a measurable concentration.
The calculated concentrations were used for PK calculations.

[3] = Pharmacokinetics of three single doses of sublingual testosterone solution in healthy premenopausal women; settings: for AUC(0-t) / Cmax / MRT / Tmax / half-life / bioavailability: female, human, in vivo; for AUC(0-t) / Cmax / MRT / Tmax / half-life: serum; for AUC(0-t) / Cmax: geometric mean (% CV); for MRT / Tmax / half-life: mean ± SD
Method: All 16 subjects received each investigational drug dose once in random order. Wash-out between treatments was at least 48 h. Subjects had serial blood samples drawn via an intravenous catheter. Pharmacokinetic parameters were monitored at baseline and (at 2, 4, 6, 8, 10, 20, 30, 60, 90, 120, 180, 230 min) after dosing.
Blood samples in the placebo condition were only measured at −5, 10, 60 and 230 min.
For the placebo solution 0.50 ml was administered.
The different doses were prepared by an unblinded research associate and administered by blinded research associates. The blinded research associate administered the solution into the subjects mouth under the tongue, the subjects were instructed to keep the solution sublingually for 1 minute while moving the tongue slightly to optimize absorption. After 1 minute the blinded research associate instructed the subject to swallow the solution.
E2 was analysed by a chemiluminescence immunoassay (Siemens), the LLOQ was […]. 3α-diol-G was measured by ELISA (BioVendor), the LLOQ was 0.25 ng/mL. SHBG was measured by an electrochemiluminescent assay (ECLIA, Roche). Albumin was measured by Roche Bromocresol Green (BCG) analysis (Roche).
The pharmacokinetic parameters were analyzed using the WinNonlin software (version 5.1). Pharmacokinetic parameters including area under the curve, t=0 till t=230 min (AUC0-230), maximum concentration (Cmax) and time to maximum concentration (tmax) were calculated based on actual and baseline corrected individual concentration time curves. AUCs were estimated using the linear trapezoidal rule. Individual pharmacokinetic parameters AUC0-230 and Cmax and corresponding dose normalized parameters were log transformed and analyzed using a mixed maximum likelihood analysis (PROC MIXED in SAS, version 9.1) including subject as a random factor and drug as a fixed effect factor. Contrasts were made of the least square means to compare the different doses. Tmax was analyzed using a Wilcoxon rank sum test. This was based on the planned times corresponding to the actual tmax to prevent bias in analysis results based on differences in sampling times.
Subsequently, we divided the subjects into two subgroups, on the basis of their baseline SHBG levels (mean of placebo, 0.25, 0.50, 0.75 mg predose levels). This subdivision was based on a median split of the baseline SHBG levels. One group (N=8) with low SHBG levels (≦63 nmol/L) and the other group (N=8) with relatively high SHBG levels (>63 nmol/L).

[4] = 0.25 mg, free testosterone, 0.25 mg sublingual
[5] = 0.25 mg, total testosterone, 0.25 mg sublingual
[6] = 0.5 mg, free testosterone, 0.50 mg sublingual
[7] = 0.5 mg, total testosterone, 0.50 mg sublingual
[8] = 0.75 mg, free testosterone, 0.75 mg sublingual
[9] = 0.75 mg, total testosterone, 0.75 mg sublingual
[10] = subjects with high SHBG, 0.25 mg
[11] = subjects with high SHBG, 0.50 mg
[12] = subjects with high SHBG, 0.75 mg
[13] = subjects with low SHBG, 0.25 mg, at 20 min after dosing
[14] = subjects with low SHBG, 0.50 mg, at 20 min after dosing
[15] = subjects with low SHBG, 0.75 mg, at 20 min after dosing

**Q.** What does the source list for `C[C@]12CC[C@H]3[C@@H](CCC4=CC(=O)CC[C@@]43C)[C@@H]1CC[C@@H]2O` [Testosterone, testosterone]?
**A.** T1/2 of free testosterone (rapidly metabolized) [1]: 10 min; Tmax [2]: 10 to 20 min; half-life [2]: ~37 min; time at which serum free and total testosterone levels peaked ([3]; all three doses (0.25, 0.50, 0.75 mg) sublingual): 15 min; AUC(0-t) ([3]; 0.25 mg, Baseline corrected AUC 0-230, free testosterone, 0.25 mg sublingual): 0.0158 ng·h/mL; AUC(0-t) ([3]; 0.25 mg, Baseline corrected AUC 0-230, total testosterone, 0.25 mg sublingual): 3.23 ng·h/mL; Cmax [3, 4]: 0.021 ng/mL; Cmax [3, 5]: 3.79 ng/mL; MRT [3, 4]: 52.6 min; MRT [3, 5]: 57.7 min; Tmax [3, 4]: 15.6 min; Tmax [3, 5]: 15.6 min; half-life ([3]; 0.25 mg, t1/2, free testosterone, 0.25 mg sublingual): 42.3 ± 14.6 min; half-life ([3]; 0.25 mg, t1/2, total testosterone, 0.25 mg sublingual): 49.8 ± 16 min; bioavailability ([3]; 0.5 mg): 69%; AUC(0-t) ([3]; 0.5 mg, Baseline corrected AUC 0-230, free testosterone, 0.50 mg sublingual): 0.0252 ng·h/mL; AUC(0-t) ([3]; 0.5 mg, Baseline corrected AUC 0-230, total testosterone, 0.50 mg sublingual): 4.43 ng·h/mL; Cmax [3, 6]: 0.032 ng/mL; Cmax [3, 7]: 5.31 ng/mL; MRT [3, 6]: 57.1 min; MRT [3, 7]: 55.6 min; Tmax [3, 6]: 14.4 min; Tmax [3, 7]: 15.1 min; half-life ([3]; 0.5 mg, t1/2, free testosterone, 0.50 mg sublingual): 55.7 ± 27.5 min; half-life ([3]; 0.5 mg, t1/2, total testosterone, 0.50 mg sublingual): 49.7 ± 22.4 min; bioavailability ([3]; 0.75 mg): 58%; AUC(0-t) ([3]; 0.75 mg, Baseline corrected AUC 0-230, free testosterone, 0.75 mg sublingual): 0.0312 ng·h/mL; AUC(0-t) ([3]; 0.75 mg, Baseline corrected AUC 0-230, total testosterone, 0.75 mg sublingual): 5.62 ng·h/mL; Cmax [3, 8]: 0.043 ng/mL; Cmax [3, 9]: 6.73 ng/mL; MRT [3, 8]: 51.4 min; MRT [3, 9]: 59.5 min; Tmax [3, 8]: 12.8 min; Tmax [3, 9]: 14.3 min; half-life ([3]; 0.75 mg, t1/2, free testosterone, 0.75 mg sublingual): 51.1 ± 26.4 min; half-life ([3]; 0.75 mg, t1/2, total testosterone, 0.75 mg sublingual): 58.5 ± 24.6 min; influence on 3α-diol-G concentrations ([3]; increasing doses, t=0, 60, 120, 230): does not seem to influence; maximum levels of free testosterone [3, 10]: 0.018 ng/mL; maximum levels of total testosterone [3, 10]: 5.00 ng/mL; maximum levels of free testosterone [3, 11]: 0.026 ng/mL; maximum levels of total testosterone [3, 11]: 7.08 ng/mL; maximum levels of free testosterone [3, 12]: 0.034 ng/mL; maximum levels of total testosterone [3, 12]: 9.04 ng/mL; maximum levels of free testosterone [3, 13]: 0.026 ng/mL; maximum levels of total testosterone [3, 13]: 3.18 ng/mL; maximum levels of free testosterone [3, 14]: 0.039 ng/mL; maximum levels of total testosterone [3, 14]: 3.93 ng/mL; maximum levels of free testosterone [3, 15]: 0.048 ng/mL; maximum levels of total testosterone [3, 15]: 4.73 ng/mL; tolerability ([3]; three doses sublingual testosterone): well tolerated
